Assay results as given in the supplement of paper PMC10307832.

Experiments:
Assay in all cases: relative viability (nuclei count vs DMSO), 5 days (fraction); higher = more cells survive
MK-2206 + Pemetrexed = compound: NC1(c2ccc(-c3nc4ccn5c(=O)[nH]nc5c4cc3-c3ccccc3)cc2)CCC1 [MK-2206] + Nc1nc2[nH]cc(CCc3ccc(C(=O)N[C@@H](CCC(=O)O)C(=O)O)cc3)c2c(=O)[nH]1 [Pemetrexed] (partner 0.2 µM)
Outline: (§1)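 Lung cancer cell lines, seeded in 1536-well plates, were treated the following day by pin tool with a single drug or with five library-drug doses (not always all listed) in √10 steps on top of a fixed anchor-drug dose. Cells were fixed and nuclei stained in one step after 5 days, and nuclei were counted. Relative viability is the nuclei count for treated wells divided by that for vehicle wells, reported as medians of duplicate plates.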

Pictilisib + Linsitinib = compound: CS(=O)(=O)N1CCN(Cc2cc3nc(-c4cccc5[nH]ncc45)nc(N4CCOCC4)c3s2)CC1 [Pictilisib] + C[C@]1(O)C[C@@H](c2nc(-c3ccc4ccc(-c5ccccc5)nc4c3)c3c(N)nccn32)C1 [Linsitinib] (partner 1 µM)
Outline: as §1

MK-2206 + Crizotinib = compound: NC1(c2ccc(-c3nc4ccn5c(=O)[nH]nc5c4cc3-c3ccccc3)cc2)CCC1 [MK-2206] + C[C@@H](Oc1cc(-c2cnn(C3CCNCC3)c2)cnc1N)c1c(Cl)ccc(F)c1Cl [Crizotinib] (partner 1 µM)
Outline: as §1

Pictilisib + Crizotinib = compound: CS(=O)(=O)N1CCN(Cc2cc3nc(-c4cccc5[nH]ncc45)nc(N4CCOCC4)c3s2)CC1 [Pictilisib] + C[C@@H](Oc1cc(-c2cnn(C3CCNCC3)c2)cnc1N)c1c(Cl)ccc(F)c1Cl [Crizotinib] (partner 1 µM)
Outline: as §1

MK-2206 + Decitabine = compound: NC1(c2ccc(-c3nc4ccn5c(=O)[nH]nc5c4cc3-c3ccccc3)cc2)CCC1 [MK-2206] + Nc1ncn([C@H]2C[C@H](O)[C@@H](CO)O2)c(=O)n1 [Decitabine] (partner 2 µM)
Outline: as §1

CAL-12T
relative viability (MK-2206 + Pemetrexed; first compound 0.01 µM): 1.12
relative viability (MK-2206 + Pemetrexed; first compound 0.03162 µM): 1.07
relative viability (MK-2206 + Pemetrexed; first compound 0.3162 µM): 1.28
relative viability (MK-2206 + Pemetrexed; first compound 1 µM): 1.06
relative viability (Pictilisib + Linsitinib; first compound 0.02 µM): 0.986
relative viability (Pictilisib + Linsitinib; first compound 0.06325 µM): 0.732
relative viability (Pictilisib + Linsitinib; first compound 0.6325 µM): 0.807
relative viability (Pictilisib + Linsitinib; first compound 2 µM): 0.424
relative viability (MK-2206 + Crizotinib; first compound 0.01 µM): 0.546
relative viability (MK-2206 + Crizotinib; first compound 0.03162 µM): 0.688
relative viability (MK-2206 + Crizotinib; first compound 0.3162 µM): 0.488
relative viability (MK-2206 + Crizotinib; first compound 1 µM): 0.491
relative viability (Pictilisib + Crizotinib; first compound 0.02 µM): 0.615
relative viability (Pictilisib + Crizotinib; first compound 0.06325 µM): 0.893
relative viability (Pictilisib + Crizotinib; first compound 0.6325 µM): 0.704
relative viability (Pictilisib + Crizotinib; first compound 2 µM): 0.471

NCI-H1993
relative viability (MK-2206 + Pemetrexed; first compound 0.01 µM): 0.727
relative viability (MK-2206 + Pemetrexed; first compound 0.03162 µM): 0.555
relative viability (MK-2206 + Pemetrexed; first compound 0.3162 µM): 0.516
relative viability (MK-2206 + Pemetrexed; first compound 1 µM): 0.477
relative viability (MK-2206 + Decitabine; first compound 0.01 µM): 0.533
relative viability (MK-2206 + Decitabine; first compound 0.03162 µM): 0.585
relative viability (MK-2206 + Decitabine; first compound 0.3162 µM): 0.516
relative viability (MK-2206 + Decitabine; first compound 1 µM): 0.491
relative viability (Pictilisib + Linsitinib; first compound 0.02 µM): 0.774
relative viability (Pictilisib + Linsitinib; first compound 0.06325 µM): 0.71
relative viability (Pictilisib + Linsitinib; first compound 0.6325 µM): 0.636
relative viability (Pictilisib + Linsitinib; first compound 2 µM): 0.655
relative viability (MK-2206 + Crizotinib; first compound 0.01 µM): 0.842
relative viability (MK-2206 + Crizotinib; first compound 0.03162 µM): 0.86
relative viability (MK-2206 + Crizotinib; first compound 0.3162 µM): 0.729
relative viability (MK-2206 + Crizotinib; first compound 1 µM): 0.68
relative viability (Pictilisib + Crizotinib; first compound 0.02 µM): 0.766
relative viability (Pictilisib + Crizotinib; first compound 0.06325 µM): 0.691
relative viability (Pictilisib + Crizotinib; first compound 0.6325 µM): 0.726
relative viability (Pictilisib + Crizotinib; first compound 2 µM): 0.638

LXF-289
relative viability (MK-2206 + Pemetrexed; first compound 0.01 µM): 0.886
relative viability (MK-2206 + Pemetrexed; first compound 0.03162 µM): 0.873
relative viability (MK-2206 + Pemetrexed; first compound 0.3162 µM): 0.956
relative viability (MK-2206 + Pemetrexed; first compound 1 µM): 1.17
relative viability (MK-2206 + Decitabine; first compound 0.01 µM): 0.398
relative viability (MK-2206 + Decitabine; first compound 0.03162 µM): 0.418
relative viability (MK-2206 + Decitabine; first compound 0.3162 µM): 0.412
relative viability (MK-2206 + Decitabine; first compound 1 µM): 0.396
relative viability (Pictilisib + Linsitinib; first compound 0.02 µM): 0.989
relative viability (Pictilisib + Linsitinib; first compound 0.06325 µM): 0.95
relative viability (Pictilisib + Linsitinib; first compound 0.6325 µM): 0.973
relative viability (Pictilisib + Linsitinib; first compound 2 µM): 0.771
relative viability (MK-2206 + Crizotinib; first compound 0.01 µM): 0.786
relative viability (MK-2206 + Crizotinib; first compound 0.03162 µM): 0.819
relative viability (MK-2206 + Crizotinib; first compound 0.3162 µM): 0.841
relative viability (MK-2206 + Crizotinib; first compound 1 µM): 0.888
relative viability (Pictilisib + Crizotinib; first compound 0.02 µM): 0.862
relative viability (Pictilisib + Crizotinib; first compound 0.06325 µM): 0.837
relative viability (Pictilisib + Crizotinib; first compound 0.6325 µM): 0.843
relative viability (Pictilisib + Crizotinib; first compound 2 µM): 0.752

NCI-H1792
relative viability (MK-2206 + Pemetrexed; first compound 0.01 µM): 0.76
relative viability (MK-2206 + Pemetrexed; first compound 0.03162 µM): 0.929
relative viability (MK-2206 + Pemetrexed; first compound 0.3162 µM): 0.654
relative viability (MK-2206 + Pemetrexed; first compound 1 µM): 0.373
relative viability (MK-2206 + Decitabine; first compound 0.01 µM): 0.6
relative viability (MK-2206 + Decitabine; first compound 0.03162 µM): 0.577
relative viability (MK-2206 + Decitabine; first compound 0.3162 µM): 0.581
relative viability (MK-2206 + Decitabine; first compound 1 µM): 0.458
relative viability (Pictilisib + Linsitinib; first compound 0.02 µM): 0.502
relative viability (Pictilisib + Linsitinib; first compound 0.06325 µM): 0.547
relative viability (Pictilisib + Linsitinib; first compound 0.6325 µM): 0.446
relative viability (Pictilisib + Linsitinib; first compound 2 µM): 0.262
relative viability (MK-2206 + Crizotinib; first compound 0.01 µM): 0.968
relative viability (MK-2206 + Crizotinib; first compound 0.03162 µM): 1
relative viability (MK-2206 + Crizotinib; first compound 0.3162 µM): 0.999
relative viability (MK-2206 + Crizotinib; first compound 1 µM): 0.944
relative viability (Pictilisib + Crizotinib; first compound 0.02 µM): 0.916
relative viability (Pictilisib + Crizotinib; first compound 0.06325 µM): 0.925
relative viability (Pictilisib + Crizotinib; first compound 0.6325 µM): 0.772
relative viability (Pictilisib + Crizotinib; first compound 2 µM): 0.425
